{"source": "PubChem BioAssay AID2060485", "about": "(Molecular Pharmacology Branch, DTP, NCI, 2025)", "test_system": "A375 multi-cell spheroids with HUVEC/MSC, viability", "test": "Anticancer human tumor A375 cell line growth inhibition [GQUAD];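 on all read-outs here: spheroids exposed to compounds for seven days before readout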", "details": "for IC50: curve of first compound; for viability, T/C: stronger effect = lower value", "in_short": "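Multi-cell-type spheroids of tumor cells with HUVEC and mesenchymal stem cells, treated with drug combinations. Concentrations descend in half-log steps from near clinical Cmax, or from 10 microM where Cmax is unknown; viability read-out.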"}
{"smiles": "COc1ncnc(C2CC2)c1-c1ncc2cnn(Cc3ccc(-c4nc(C(F)(F)F)cn4C(C)C)cc3)c2n1", "note": "+ Cc1cnc(CNC(=O)c2c(=O)c3ccc(N4CCCN(C)CC4)nc3n3c2sc2ccccc23)cn1", "values": [{"measurement": "IC50", "setting": "second compound 0.0316 µM", "value": "> 10000", "unit": "nM"}, {"measurement": "IC50", "setting": "second compound 0.1 µM", "value": "> 10000", "unit": "nM"}, {"measurement": "IC50", "setting": "second compound 0.316 µM", "value": "< 31.6", "unit": "nM"}, {"measurement": "IC50", "setting": "second compound 1 µM", "value": "< 31.6", "unit": "nM"}, {"measurement": "IC50", "setting": "second compound 3.16 µM", "value": "< 31.6", "unit": "nM"}, {"measurement": "IC50", "setting": "second compound 10 µM", "value": "< 31.6", "unit": "nM"}, {"measurement": "viability, T/C", "setting": "second compound 0.0316 µM, first compound 0.0316 µM", "value": 101, "unit": "%"}, {"measurement": "viability, T/C", "setting": "second compound 0.0316 µM, first compound 0.1 µM", "value": 110, "unit": "%"}, {"measurement": "viability, T/C", "setting": "second compound 0.0316 µM, first compound 0.316 µM", "value": 102, "unit": "%"}, {"measurement": "viability, T/C", "setting": "second compound 0.0316 µM, first compound 1 µM", "value": 103, "unit": "%"}, {"measurement": "viability, T/C", "setting": "second compound 0.0316 µM, first compound 3.16 µM", "value": 104, "unit": "%"}, {"measurement": "viability, T/C", "setting": "second compound 0.0316 µM, first compound 10 µM", "value": 111, "unit": "%"}, {"measurement": "viability, T/C", "setting": "second compound 0.1 µM, first compound 0.0316 µM", "value": 69.3, "unit": "%"}, {"measurement": "viability, T/C", "setting": "second compound 0.1 µM, first compound 0.1 µM", "value": 73.5, "unit": "%"}, {"measurement": "viability, T/C", "setting": "second compound 0.1 µM, first compound 0.316 µM", "value": 57.3, "unit": "%"}, {"measurement": "viability, T/C", "setting": "second compound 0.1 µM, first compound 1 µM", "value": 61.4, "unit": "%"}, {"measurement": "viability, T/C", "setting": "second compound 0.1 µM, first compound 3.16 µM", "value": 70.3, "unit": "%"}, {"measurement": "viability, T/C", "setting": "second compound 0.1 µM, first compound 10 µM", "value": 61.2, "unit": "%"}, {"measurement": "viability, T/C", "setting": "second compound 0.316 µM, first compound 0.0316 µM", "value": 49.3, "unit": "%"}, {"measurement": "viability, T/C", "setting": "second compound 0.316 µM, first compound 0.1 µM", "value": 43.6, "unit": "%"}, {"measurement": "viability, T/C", "setting": "second compound 0.316 µM, first compound 0.316 µM", "value": 47.1, "unit": "%"}, {"measurement": "viability, T/C", "setting": "second compound 0.316 µM, first compound 1 µM", "value": 49, "unit": "%"}, {"measurement": "viability, T/C", "setting": "second compound 0.316 µM, first compound 3.16 µM", "value": 46.2, "unit": "%"}, {"measurement": "viability, T/C", "setting": "second compound 0.316 µM, first compound 10 µM", "value": 47.7, "unit": "%"}, {"measurement": "viability, T/C", "setting": "second compound 1 µM, first compound 0.0316 µM", "value": 36.2, "unit": "%"}, {"measurement": "viability, T/C", "setting": "second compound 1 µM, first compound 0.1 µM", "value": 35, "unit": "%"}, {"measurement": "viability, T/C", "setting": "second compound 1 µM, first compound 0.316 µM", "value": 34.5, "unit": "%"}, {"measurement": "viability, T/C", "setting": "second compound 1 µM, first compound 1 µM", "value": 38.5, "unit": "%"}, {"measurement": "viability, T/C", "setting": "second compound 1 µM, first compound 3.16 µM", "value": 33.5, "unit": "%"}, {"measurement": "viability, T/C", "setting": "second compound 1 µM, first compound 10 µM", "value": 33.5, "unit": "%"}, {"measurement": "viability, T/C", "setting": "second compound 3.16 µM, first compound 0.0316 µM", "value": 29.6, "unit": "%"}, {"measurement": "viability, T/C", "setting": "second compound 3.16 µM, first compound 0.1 µM", "value": 37.2, "unit": "%"}, {"measurement": "viability, T/C", "setting": "second compound 3.16 µM, first compound 0.316 µM", "value": 30.9, "unit": "%"}, {"measurement": "viability, T/C", "setting": "second compound 3.16 µM, first compound 1 µM", "value": 33.5, "unit": "%"}, {"measurement": "viability, T/C", "setting": "second compound 3.16 µM, first compound 3.16 µM", "value": 31.7, "unit": "%"}, {"measurement": "viability, T/C", "setting": "second compound 3.16 µM, first compound 10 µM", "value": 33.9, "unit": "%"}, {"measurement": "viability, T/C", "setting": "second compound 10 µM, first compound 0.0316 µM", "value": 30, "unit": "%"}, {"measurement": "viability, T/C", "setting": "second compound 10 µM, first compound 0.1 µM", "value": 26, "unit": "%"}, {"measurement": "viability, T/C", "setting": "second compound 10 µM, first compound 0.316 µM", "value": 27.6, "unit": "%"}, {"measurement": "viability, T/C", "setting": "second compound 10 µM, first compound 1 µM", "value": 26.4, "unit": "%"}, {"measurement": "viability, T/C", "setting": "second compound 10 µM, first compound 3.16 µM", "value": 32.7, "unit": "%"}, {"measurement": "viability, T/C", "setting": "second compound 10 µM, first compound 10 µM", "value": 31.9, "unit": "%"}]}
